These results are taken from patent publication US9661854B2, “Molecules having pesticidal utility, and intermediates, compositions, and processes, related thereto” (Dow AgroSciences LLC, priority 2015, dated 2017).

What is called mortality is the share of the test organisms that died.

For assay [1], the system named is Beet Armyworm (Spodoptera exigua, LAPHEG). In words: Bioassay on Beet Armyworm (BAW), 128-well diet tray assay. In kind it is in vivo. Conditions: 168 h, 50 μg/cm^2 on artificial diet, second instar larvae, 25° C., five to seven days, average of eight wells, read-out: BAW % Control (or Mortality) rating. As to the method: (§1) Example A: Bioassays on Beet Armyworm (Spodoptera exigua, LAPHEG) (“BAW”) and Cabbage Looper (Trichoplusia ni, TRIPNI) (“CL”)
(§2) Certain molecules disclosed in this document were tested against BAW and CL using procedures described in the following examples. In the reporting of the results, the “BAW & CL Rating Table” was used (See Table Section).
Bioassays on BAW were conducted using a 128-well diet tray assay. One to five second instar BAW larvae were placed in each well (3 mL) of the diet tray that had been previously filled with 1 mL of artificial diet to which 50 μg/cm^2 of the test molecule (dissolved in 50 μL of 90:10 acetone-water mixture) had been applied (to each of eight wells) and then allowed to dry. Trays were covered with a clear self-adhesive cover, vented to allow gas exchange, and held at 25° C., 14:10 light-dark for five to seven days. Percent mortality was recorded for the larvae in each well; activity in the eight wells was then averaged. The results are indicated in the table entitled “Table ABC: Biological Results” (See Table Section).

The test system of assay [2] is Cabbage Looper (Trichoplusia ni, TRIPNI). Put plainly: Bioassay on Cabbage Looper (CL), 128-well diet tray assay. The assay is classed as in vivo. Conditions: 168 h, 50 μg/cm^2 on artificial diet, second instar larvae, 25° C., five to seven days, average of eight wells, read-out: CL % Control (or Mortality) rating. As to the method: as §1, §2
Bioassays on CL were conducted using a 128-well diet tray assay. One to five second instar CL larvae were placed in each well (3 mL) of the diet tray that had been previously filled with 1 mL of artificial diet to which 50 μg/cm^2 of the test molecule (dissolved in 50 μL of 90:10 acetone-water mixture) had been applied (to each of eight wells) and then allowed to dry. Trays were covered with a clear self-adhesive cover, vented to allow gas exchange, and held at 25° C., 14:10 light-dark for five to seven days. Percent mortality was recorded for the larvae in each well; activity in the eight wells was then averaged. The results are indicated in the table entitled “Table ABC: Biological Results” (See Table Section).

`Cc1ccc(C(C)C)c(N2C(=O)CS/C2=N\C(=O)Nc2ccc(/C=C/c3ncn(-c4ccc(OC(F)(F)F)cc4)n3)c(C)c2)c1` [F39, 1-((Z)-3-(2-Isopropyl-5-methylphenyl)-4-oxothiazolidin-2-ylidene)-3-(3-methyl-4-((E)-2-(1-(4-(trifluoromethoxy)phenyl)-1H-1,2,4-triazol-3-yl)vinyl)phenyl)urea]: the mortality at 50 µg/cm2 in assay [1] and in assay [2] was 50 to 100% each time.

For `Cc1ccc(C(C)C)c(-n2ccs/c2=N\C(=O)Nc2ccc(CCc3ncn(-c4ccc(OC(F)(F)F)cc4)n3)cc2F)c1` [F37, (Z)-1-(2-Fluoro-4-(2-(1-(4-(trifluoromethoxy)phenyl)-1H-1,2,4-triazol-3-yl)ethyl)phenyl)-3-(3-(2-isopropyl-5-methylphenyl)thiazol-2(3H)-ylidene)urea], the mortality at 50 µg/cm2 in assay [1] and in assay [2] was 50 to 100% throughout.

As for `Cc1ccc(C(F)(F)F)c(N2C(=O)CS/C2=N\C(=O)Nc2ccc(/C=C/c3ncn(-c4ccc(OC(F)(F)F)cc4)n3)cc2)c1` [F43, 1-((Z)-3-(5-Methyl-2-(trifluoromethyl)phenyl)-4-oxothiazolidin-2-ylidene)-3-(4-((E)-2-(1-(4-(trifluoromethoxy)phenyl)-1H-1,2,4-triazol-3-yl)vinyl)phenyl)urea], the mortality at 50 µg/cm2 in assay [1] and in assay [2] was 50 to 100% each time.

On to `Cc1ccc(OCC(F)(F)F)c(N2C(=O)CS/C2=N\C(=O)Nc2ccc(/C=C/c3ncn(-c4ccc(OC(F)(F)F)cc4)n3)cc2)c1` [F51, 1-((Z)-3-(5-Methyl-2-(2,2,2-trifluoroethoxy)phenyl)-4-oxothiazolidin-2-ylidene)-3-(4-((E)-2-(1-(4-(trifluoromethoxy)phenyl)-1H-1,2,4-triazol-3-yl)vinyl)phenyl)urea], for which the mortality at 50 µg/cm2 in assay [1] and in assay [2] was 50 to 100% each time.

Take `O=C(/N=C1\SCC(=O)N1C1CCCCC1)Nc1ccc(/C=C/c2ncn(-c3ccc(OC(F)(F)F)cc3)n2)cc1F` [F78, 1-((Z)-3-Cyclohexyl-4-oxothiazolidin-2-ylidene)-3-(2-fluoro-4-((E)-2-(1-(4-(trifluoromethoxy)phenyl)-1H-1,2,4-triazol-3-yl)vinyl)phenyl)urea]: the mortality at 50 µg/cm2 in assay [1] and in assay [2] was 50 to 100% each time.

With `Cc1ccc(C(C)C)c(-n2ccs/c2=N\C(=O)Nc2ccc(CCc3ncn(-c4ccc(OC(F)(F)F)cc4)n3)cc2)c1` [F36, (Z)-1-(3-(2-Isopropyl-5-methylphenyl)thiazol-2(3H)-ylidene)-3-(4-(2-(1-(4-(trifluoromethoxy)phenyl)-1H-1,2,4-triazol-3-yl)ethyl)phenyl)urea], the mortality at 50 µg/cm2 in assay [1] and in assay [2] was 50 to 100% each time.

Take `Cc1ccc(C(C)C)c(N2C(=O)CS/C2=N\C(=O)Nc2ccc(/C=C/c3ncn(-c4ccc(OC(F)(F)F)cc4)n3)cn2)c1` [F70, 1-((Z)-3-(2-isopropyl-5-methylphenyl)-4-oxothiazolidin-2-ylidene)-3-(5-((E)-2-(1-(4-(trifluoromethoxy)phenyl)-1H-1,2,4-triazol-3-yl)vinyl)pyridin-2-yl)urea]: the mortality at 50 µg/cm2 in assay [1] and in assay [2] was 50 to 100% each time.

Take `COCc1ccc(C)cc1N1C(=O)CS/C1=N\C(=O)Nc1c(F)cc(/C=C/c2ncn(-c3ccc(OC(F)(F)F)cc3)n2)cc1F` [F68, 1-(2,6-Difluoro-4-((E)-2-(1-(4-(trifluoromethoxy)phenyl)-1H-1,2,4-triazol-3-yl)vinyl)phenyl)-3-((Z)-3-(2-(methoxymethyl)-5-methylphenyl)-4-oxothiazolidin-2-ylidene)urea]: the mortality at 50 µg/cm2 in assay [1] and in assay [2] was 50 to 100% throughout.

For the compound `COc1cc(NC(=O)/N=C2\SCC(=O)N2c2cc(C)ccc2C(C)C)ccc1/C=C/c1ncn(-c2ccc(OC(F)(F)F)cc2)n1` [F40, 1-((Z)-3-(2-Isopropyl-5-methylphenyl)-4-oxothiazolidin-2-ylidene)-3-(3-methoxy-4-((E)-2-(1-(4-(trifluoromethoxy)phenyl)-1H-1,2,4-triazol-3-yl)vinyl)phenyl)urea], the mortality at 50 µg/cm2 in assay [1] and in assay [2] was 50 to 100% each time.

Take `Cc1ccc(OC(F)(F)F)c(N2C(=O)CS/C2=N\C(=O)Nc2ccc(CCc3ncn(-c4ccc(OC(F)(F)F)cc4)n3)cc2)c1` [F12, (Z)-1-(3-(5-Methyl-2-(trifluoromethoxy)phenyl)-4-oxothiazolidin-2-ylidene)-3-(4-(2-(1-(4-(trifluoromethoxy)phenyl)-1H-1,2,4-triazol-3-yl)ethyl)phenyl)urea]: the mortality at 50 µg/cm2 in assay [1] and in assay [2] was 50 to 100% in each case.

On to `Cc1ccc(C(C)C)c(N2C(=O)CS/C2=N\C(=O)Nc2ccc(CCc3ncn(-c4ncc(C(F)(F)F)cc4Cl)n3)cc2)c1` [F34, (Z)-1-(4-(2-(1-(3-Chloro-5-(trifluoromethyl)pyridin-2-yl)-1H-1,2,4-triazol-3-yl)ethyl)phenyl)-3-(3-(2-isopropyl-5-methylphenyl)-4-oxothiazolidin-2-ylidene)urea], for which the mortality at 50 µg/cm2 in assay [1] is 0%; in assay [2], 50 to 100%.

On to `Cc1ccc(OC(C)C)c(N2C(=O)CS/C2=N\C(=O)Nc2ccc(/C=C/c3ncn(-c4ccc(OC(F)(F)F)cc4)n3)cc2)c1` [F49, 1-((Z)-3-(2-Isopropoxy-5-methylphenyl)-4-oxothiazolidin-2-ylidene)-3-(4-((E)-2-(1-(4-(trifluoromethoxy)phenyl)-1H-1,2,4-triazol-3-yl)vinyl)phenyl)urea], for which the mortality at 50 µg/cm2 in assay [1] and in assay [2] was 50 to 100% throughout.

As to `CC(C)c1ccc(C(F)(F)F)cc1N1C(=O)CS/C1=N\C(=O)Nc1ccc(CCc2ncn(-c3ccc(OC(F)(F)F)cc3)n2)cc1` [F29, (Z)-1-(3-(2-Isopropyl-5-(trifluoromethyl)phenyl)-4-oxothiazolidin-2-ylidene)-3-(4-(2-(1-(4-(trifluoromethoxy)phenyl)-1H-1,2,4-triazol-3-yl)ethyl)phenyl)urea], the mortality at 50 µg/cm2 in assay [1] and in assay [2] was 50 to 100% in each case.

On to `Cc1cc(N2C(=O)CS/C2=N\C(=O)Nc2ccc(/C=C/c3ncn(-c4ccc(OC(F)(F)F)cc4)n3)cc2)c(C(C)C)cc1F` [F47, 1-((Z)-3-(4-Fluoro-2-isopropyl-5-methylphenyl)-4-oxothiazolidin-2-ylidene)-3-(4-((E)-2-(1-(4-(trifluoromethoxy)phenyl)-1H-1,2,4-triazol-3-yl)vinyl)phenyl)urea], for which the mortality at 50 µg/cm2 in assay [1] and in assay [2] was 50 to 100% throughout.

In the case of `Cc1ccc(C(C)C)c(N2C(=O)CS/C2=N\C(=O)Nc2ccc(/C=C/c3ncn(-c4ncc(C(F)(F)F)cc4Cl)n3)cc2)c1` [F72, 1-(4-((E)-2-(1-(3-chloro-5-(trifluoromethyl)pyridin-2-yl)-1H-1,2,4-triazol-3-yl)vinyl)phenyl)-3-((Z)-3-(2-isopropyl-5-methylphenyl)-4-oxothiazolidin-2-ylidene)urea], the mortality at 50 µg/cm2 in assay [1] and in assay [2] was 50 to 100% throughout.

As to `CCCc1ccc(C)cc1N1C(=O)CS/C1=N\C(=O)Nc1ccc(/C=C/c2ncn(-c3ccc(OC(F)(F)F)cc3)n2)cc1F` [F63, 1-(2-Fluoro-4-((E)-2-(1-(4-(trifluoromethoxy)phenyl)-1H-1,2,4-triazol-3-yl)vinyl)phenyl)-3-((Z)-3-(5-methyl-2-propylphenyl)-4-oxothiazolidin-2-ylidene)urea], the mortality at 50 µg/cm2 in assay [1] and in assay [2] was 50 to 100% throughout.

Turning to `CCC(C)Oc1ccc(C)cc1N1C(=O)CS/C1=N\C(=O)Nc1ccc(CCc2ncn(-c3ccc(OC(F)(F)F)cc3)n2)cc1` (centres unmarked) [F10, (Z)-1-(3-(2-(sec-Butoxy)-5-methylphenyl)-4-oxothiazolidin-2-ylidene)-3-(4-(2-(1-(4-(trifluoromethoxy)phenyl)-1H-1,2,4-triazol-3-yl)ethyl)phenyl)urea], the mortality at 50 µg/cm2 in assay [1] and in assay [2] was 50 to 100% throughout.

Take `CC(C)c1ccc(C(F)(F)F)cc1N1C(=O)CS/C1=N\C(=O)Nc1ccc(/C=C/c2ncn(-c3ccc(OC(F)(F)F)cc3)n2)cc1` [F65, 1-((Z)-3-(2-isopropyl-5-(trifluoromethyl)phenyl)-4-oxothiazolidin-2-ylidene)-3-(4-((E)-2-(1-(4-(trifluoromethoxy)phenyl)-1H-1,2,4-triazol-3-yl)vinyl)phenyl)urea]: the mortality at 50 µg/cm2 in assay [1] and in assay [2] was 50 to 100% in each case.

For the compound `COCc1ccc(C)cc1N1C(=O)CS/C1=N\C(=O)Nc1ccc(CCc2ncn(-c3ccc(OC(F)(F)F)cc3)n2)cc1F` [F22, (Z)-1-(2-Fluoro-4-(2-(1-(4-(trifluoromethoxy)phenyl)-1H-1,2,4-triazol-3-yl)ethyl)phenyl)-3-(3-(2-(methoxymethyl)-5-methylphenyl)-4-oxothiazolidin-2-ylidene)urea], the mortality at 50 µg/cm2 in assay [1] and in assay [2] was 50 to 100% throughout.
